Measured values from paper PMC8143291, “Cytotoxicity and Microbicidal Activity of Commonly Used Organic Solvents: A Comparative Study and Application to a Standardized Extract from Vaccinium macrocarpon” (Toxics, 2021).
Values joined by “and” are separate entries in the source; they are usually repeats but may differ in a detail not shown here. Equal entries are not always repeated.

Key:
S. pyogenes SAIMC 10535 [1] = assay: Dehydrogenase activity (DEHA) MTT test after BMD; format: cell-based, Streptococcus pyogenes; settings: 24 h exposure; % against untreated control; ± SD; n = 3
Procedure: (§1) The cell dehydrogenase (DEHA, redox, metabolic) activity of all samples was measured at the end of the BMD assay, based on reducing the MTT dye to formazan by the membrane located bacterial enzyme NADH: ubiquinone reductase (H^+-translocation). The protocol of Wang et al. was applied after minor modifications. Briefly, each sample was incubated for 120 min at 37 °C with MTT at a final concentration of 0.5 mg/mL in the culture medium. The resulting non-soluble violet formazan crystals were dissolved with an equal volume of 2-propanol supplemented with 5% formic acid. The absorbance was measured at 550 nm against a blank solution containing the respective volumes of MHB and MTT.
(§2) The cell viability is presented as a percentage of the untreated control. At least four wells were seeded for every concentration. Three independent assays were performed (n = 3). […] The respiratory activity of the bacterial cultures was calculated as a percentage against the untreated control.

S. Aureus ATCC 29213 [2] = assay: Dehydrogenase activity (DEHA) MTT test after BMD; format: cell-based, Staphylococcus aureus; settings: 24 h exposure; % against untreated control; ± SD; n = 3
Procedure: as §1, §2

E. faecalis ATCC 29212 [3] = assay: Broth microdilution MIC/MBC; format: cell-based, Enterococcus faecalis; settings: 24 h exposure; v/v; n = 3
Description: (§3) The bacterial strains used for AST of the solvents included: Staphylococcus aureus (ATCC 29213), Staphylococcus aureus—MRSA (NBIMCC 8327—resistant to methicillin and oxacillin, National Bulgarian Collection for Industrial Microorganisms and Cell Cultures, Sofia, Bulgaria), Streptococcus pyogenes (SAIMC 10535, Collection of the Stephan Angeloff Institute of Microbiology, Sofia, Bulgaria), Enterococcus faecalis (ATCC 29212), Escherichia coli (ATCC 35218), Pseudomonas aeruginosa (ATCC 27853), and Yersinia enterocolitica (IP864 O:3, Collection of Institut Pasteur, Paris, France). The selected strains are the most often investigated ones in the AST research studies in correspondence with the standard ISO 20776-1 Part 1: Reference method for testing the in vitro activity of antimicrobial agents against rapidly growing aerobic bacteria involved in infectious diseases. The antimycotic activity was tested on Candida albicans (CBS 562, Utrecht, The Netherlands). The strains S. aureus, MRSA, E. coli and E. faecalis were grown on Mueller–Hinton broth/agar (MHB/MHA); S. pyogenes, P. aeruginosa, Y. enterocolitica and C. albicans were grown on brain heart infusion (BHI) broth/agar; E. coli was also grown on Luria–Bertani broth/agar (LBB/LBA).
(§4) The minimum inhibitory concentration (MIC) for each solvent was estimated by the broth microdilution method (BMD) in 96-well microplates, following ISO 20776/1-2006 [3] and CLSI protocols. Briefly, a standardized bacterial inoculum was prepared from each bacterial species by suspending 3–4 colonies from a pure culture into 4 mL sterile saline. The turbidity of the inocula was adjusted to McFarland 0.5 (1.0 × 10^8 CFU/mL, λ = 600 nm), and 50 µL were resuspended in 10 mL of the appropriate culture medium for each strain. The bacterial inocula were added to microtiter trays containing equivalent volumes of medium loaded with the relevant solvent in concentrations varying from 0.025 to 25% volume fraction. The final volume of each sample was 100 µL/well. The plates were incubated at 37 °C for 24 h. The pure culture medium served as a negative control. Every MIC was evaluated visually as the lowest concentration without visible growth. […] MBC was defined as the lowest compound’s concentration reducing the colony growth of the initial bacterial inoculum by ≥ 99.9%.

[4] = test system: Y. enterocolitica IP 864 O: 3; assay: Broth microdilution MIC/MBC; format: cell-based, Yersinia enterocolitica; settings: 24 h exposure; v/v; n = 3
Description: as §3, §4

[5] = test system: S. Aureus MRSA NBIMCC 8327; assay: Broth microdilution MIC/MBC; format: cell-based, Staphylococcus aureus; settings: 24 h exposure; v/v; n = 3
Description: as §3, §4

S. Aureus ATCC 29213 [6] = assay: Broth microdilution MIC/MBC; format: cell-based, Staphylococcus aureus; settings: 24 h exposure; v/v; n = 3
Description: as §3, §4

[7] = no reference given; cited from earlier work
E. coli ATCC 35218 [8] = assay: Broth microdilution MIC/MBC; format: cell-based, Escherichia coli; settings: 24 h exposure, v/v, n = 3
Description: as §3, §4

[9] = test system: Y. enterocolitica IP 864 O: 3; assay: Dehydrogenase activity (DEHA) MTT test after BMD; format: cell-based, Yersinia enterocolitica; settings: 24 h exposure; % against untreated control; ± SD; n = 3
Procedure: as §1
The IC50 values from the MTT assay were evaluated with a non-linear regression analysis (Curve fit, GraphPad Prizm 6.01 software, GraphPad Software Inc., San Diego, CA, USA) using sigmoidal concentration–response curves. The cell viability is presented as a percentage of the untreated control. At least four wells were seeded for every concentration. Three independent assays were performed (n = 3). The maximum tolerated concentration (MTC) for the cell lines was determined from three independent assays according to ISO 10993-5 as the maximum concentration at which at least 70% of the cells were viable (nonlin fit, range, GraphPad Prizm 6.01 software) GraphPad Software Inc., San Diego, CA, USA). To compare the MTC values of the solvents for each cell line, the ordinary One-way ANOVA statistical analysis based on Tukey’s multiple comparisons test with a single pooled variance (GraphPad Prizm 6.01 software) GraphPad Software Inc., San Diego, CA, USA) was utilized, and p ≤ 0.05 was set as a significance level. The respiratory activity of the bacterial cultures was calculated as a percentage against the untreated control.

S. pyogenes SAIMC 10535 [10] = assay: Broth microdilution MIC/MBC; format: cell-based, Streptococcus pyogenes; settings: 24 h exposure; v/v; n = 3
Description: as §3, §4

P. aeruginosa ATCC 27853 [11] = assay: Broth microdilution MIC/MBC; format: cell-based, Pseudomonas aeruginosa; settings: 24 h exposure; v/v; n = 3
Description: as §3, §4

[12] = test system: Candida Albicans SAIMC 562; assay: Dehydrogenase activity (DEHA) MTT test after BMD; format: cell-based; settings: 24 h exposure; % active cells against untreated control; ± SD; n = 3
Procedure: as §1
(§5) The IC50 values from the MTT assay were evaluated with a non-linear regression analysis (Curve fit, GraphPad Prizm 6.01 software, GraphPad Software Inc., San Diego, CA, USA) using sigmoidal concentration–response curves. The cell viability is presented as a percentage of the untreated control. […] The maximum tolerated concentration (MTC) for the cell lines was determined from three independent assays according to ISO 10993-5 as the maximum concentration at which at least 70% of the cells were viable (nonlin fit, range, GraphPad Prizm 6.01 software) GraphPad Software Inc., San Diego, CA, USA). […] The respiratory activity of the bacterial cultures was calculated as a percentage against the untreated control.

[13] = test system: Candida Albicans SAIMC 562; assay: Broth microdilution MIC/MBC; format: cell-based; settings: 24 h exposure; v/v; n = 3
Description: as §3, with “The antimycotic activity was tested on Candida albicans (CBS 562, Utrecht, The Netherlands).” left out
as §4

P. aeruginosa ATCC 27853 [14] = assay: Dehydrogenase activity (DEHA) MTT test after BMD; format: cell-based, Pseudomonas aeruginosa; settings: 24 h exposure; % against untreated control; ± SD; n = 3
Procedure: as §1, §2

E. faecalis ATCC 29212 [15] = assay: Dehydrogenase activity (DEHA) MTT test after BMD; format: cell-based, Enterococcus faecalis; settings: 24 h exposure; % against untreated control; ± SD; n = 3
Procedure: as §1, §2

E. coli ATCC 35218 [16] = assay: Dehydrogenase activity (DEHA) MTT test after BMD; format: cell-based, Escherichia coli; settings: in MHB; 24 h exposure; % against untreated control; ± SD; n = 3
Procedure: as §1, §5

S. epidermidis = test system: S. epidermidis; design: method as in doi:10.5580/b43; settings: in the presence of 6% solvent; cited from earlier work
[17] = test system: breast cancer, mouse macrophage and human umbilical vein endothelial cells; design: method as in doi:10.17795/ajmb-33453; settings: cited from earlier work
[18] = test system: Chinese hamster liver cell line; settings: cited from earlier work

Compound | DEHA (dehydrogenase activity) (S. pyogenes SAIMC 10535 [1]) [%] | MBC (E. faecalis ATCC 29212 [3]) [%] | MIC (E. faecalis ATCC 29212 [3]) [%] | MBC [4] [%] | MIC [4] [%] | MBC [5] [%] | MIC [5] [%] | MBC (S. Aureus ATCC 29213 [6]) [%] | MIC (S. Aureus ATCC 29213 [6]) [%] | Experimental logP [7] | MBC (E. coli ATCC 35218 [8]; in LBB) [%] | MIC (E. coli ATCC 35218 [8]; in LBB) [%] | MBC (E. coli ATCC 35218 [8]; in MHB) [%] | MIC (E. coli ATCC 35218 [8]; in MHB) [%] | MBC (S. pyogenes SAIMC 10535 [10]) [%] | MIC (S. pyogenes SAIMC 10535 [10]) [%] | MBC (P. aeruginosa ATCC 27853 [11]) [%] | MIC (P. aeruginosa ATCC 27853 [11]) [%] | MBC [13] [%] | MIC [13] [%] | other results
COCCOC [DME, 1,2-dimethoxyethane] | 31.32 ± 0.05 | 12.5 | 12.5 | 6.25 | 3.125 | 3.125 | 3.125 | 12.5 | 6.25 | −0.21 | 6.25 | 3.125 | 12.5 | 12.5 | >25 | 6.25 | 12.5 | 12.5 | 25 | 12.5 | DEHA (dehydrogenase activity) (S. Aureus ATCC 29213 [2]): 12.54 ± 0.03%; DEHA (dehydrogenase activity) [9]: 49.04 ± 0.005%; DEHA (dehydrogenase activity) [12]: 31.23% and 31.23 ± 0.01%
COCCO [MEtOH, 2-methoxyethanol] | 28.02 ± 0.02 | >25 | 12.5 | 25 | 12.5 | 25 | 25 | >25 | 25 | −0.77 | 12.5 | 12.5 | 25 | 12.5 | >25 | 12.5 | 25 | 6.25 | 12.5 | 6.25 | DEHA (dehydrogenase activity) (S. Aureus ATCC 29213 [2]): 10.27 ± 0.01%; DEHA (dehydrogenase activity) (P. aeruginosa ATCC 27853 [14]): 20.23 ± 0.06%; DEHA (dehydrogenase activity) (E. faecalis ATCC 29212 [15]): 25.60 ± 0.04%; DEHA (dehydrogenase activity) [9]: 11.76 ± 0.004%; DEHA (dehydrogenase activity) (E. coli ATCC 35218 [16]): 5.86 ± 0.005%; DEHA (dehydrogenase activity) [12]: 77.41 ± 0.03%
CO [MeOH, methanol] |  | >25 | >25 | >25 | >25 | >25 | >25 | >25 | >25 | −0.77 | >25 | >25 | >25 | >25 | >25 | >25 | >25 | >25 | >25 | >25 | survival (S. epidermidis): 26%
CC(C)=O [acetone] |  |  |  |  |  |  |  |  |  |  |  |  |  |  |  |  |  |  |  |  | maximum tolerated concentration (MTC) / applicable concentration [17]: up to 0.5 % v/v
PEG-200 |  |  |  |  |  |  |  |  |  |  |  |  |  |  |  |  |  |  |  |  | clastogenic concentrations [18]: 5 to 7 mM
